Columns and labels:
healthy subjects [1] = experiment: Phase 1 study: Five Dimension Altered States of Consciousness questionnaire (5D-ASC); format: in vivo, human; details: Post-Treatment Day 0; Psilocybin 10 mg
Description: In some embodiments, the Five Dimension Altered States of Consciousness questionnaire (5D-ASC) is utilized to evaluate the safety and/or efficacy of psilocybin. […] The 5 dimensions include oceanic boundlessness, anxious ego dissolution, visionary restructuralization, auditory alterations and reduction of vigilance.

healthy subjects [2] = experiment: Phase 1 study: Social Cognition Panel (PET, RMET, SSR, SVO, TEQ); format: in vivo, human
Description: In some embodiments, Social Cognition Panel scales are utilized to evaluate the safety and/or efficacy of psilocybin. The social cognition panel scales comprise the pictorial empathy test (PET), reading the mind in the eyes test (RMET), social value orientation (SVO) test, the Toronto Empathy Questionnaire (TEQ), and the scale of social responsibility (SSR).
In some embodiments, the Pictorial Empathy Test (PET) is utilized to evaluate the effect of psilocybin on affective empathy.
In some embodiments, Reading the Mind in the Eyes Test (RMET) is utilized to evaluate the safety and/or efficacy of psilocybin. The RMET has 36 items, in which subjects are presented with a photograph of the eyes region of the face and must choose 1 of 4 adjectives or phrases to describe the mental state of the person pictured. A definition handout is provided at the beginning of the task and a practice item precedes the first trial.
In some embodiments, the Social Value Orientation (SVO) test is utilized to evaluate the safety and/or efficacy of psilocybin. The SVO Slider Measure has 6 primary items with 9 secondary (and optional) items. All of the items have the same general form. Each item is a resource allocation choice over a well-defined continuum of joint payoffs.
In some embodiments, the Toronto Empathy Questionnaire (TEQ) is utilized to evaluate the safety and/or efficacy of psilocybin. The TEQ represents empathy as a primarily emotional process. […] The TEQ is a brief, reliable and valid instrument for the assessment of empathy. In some embodiments, after treating according to the methods of the disclosure, a subject's TEQ score increases by about 5%, about 10%, about 15%, about 20%, about 25%, about 30%, about 35%, about 40%, about 45%, about 50%, about 55%, about 60%, about 65%, about 70%, about 75%, about 80%, about 85%, about 90%, about 95%, or about 100%, about 110%, about 120%, about 130%, about 140%, about 150%, about 160%, about 170%, about 180%, about 190%, about 200%, about 210%, about 220%, about 230%, about 240%, about 250%, about 260%, about 270%, about 280%, about 290%, or about 300%, or more, compared to prior to treatment.
In some embodiments, the Scale of Social Responsibility (SSR) is utilized to evaluate the safety and/or efficacy of psilocybin. The SSR measures perceptions regarding the importance of ethics and social responsibility.
The Pictorial Empathy Test (PET), Reading the Mind in the Eyes Test (RMET), Scale of Social Responsibility (SSR), Social Value Orientation (SVO), and Toronto Empathy Questionnaire (TEQ) were performed. Table 28 summarizes the results of the mixed model for repeated measures (MMRM) analysis for each of the aforementioned social cognition panel scales measured on Day 7 and Day 84 after study drug administration.

## CN(C)CCc1c[nH]c2cccc(OP(=O)(O)O)c12 [Psilocybin, psilocybin]
Healthy subjects [1]
  5D-ASC Complex imagery, LS mean: 53.0
Healthy subjects [2]; Day 7
  PET change from baseline, LS mean difference Psilocybin 10 mg-Placebo: −0.1
  PET change from baseline, LS mean difference Psilocybin 25mg-10mg: 0.3
  PET change from baseline, LS mean difference Psilocybin 25 mg-Placebo: 0.2
  RMET change from baseline, LS mean difference Psilocybin 10 mg-Placebo: 0.1
  RMET change from baseline, LS mean difference Psilocybin 25mg-10mg: 0.0
  RMET change from baseline, LS mean difference Psilocybin 25 mg-Placebo: 0.2
  SSR compliance social rules change from baseline, LS mean difference Psilocybin 10 mg-Placebo: 0.0
  SSR compliance social rules change from baseline, LS mean difference Psilocybin 25mg-10mg: 0.1
  SSR compliance social rules change from baseline, LS mean difference Psilocybin 25 mg-Placebo: 0.1
  SSR fulfilling expectations change from baseline, LS mean difference Psilocybin 10 mg-Placebo: 0.1
  SSR fulfilling expectations change from baseline, LS mean difference Psilocybin 25mg-10mg: 0.1
  SSR fulfilling expectations change from baseline, LS mean difference Psilocybin 25 mg-Placebo: 0.2
  SSR global change from baseline, LS mean difference Psilocybin 10 mg-Placebo: 1.2
  SSR global change from baseline, LS mean difference Psilocybin 25mg-10mg: 1.6
  SSR global change from baseline, LS mean difference Psilocybin 25 mg-Placebo: 2.8
  SVO angle change from baseline, LS mean difference Psilocybin 10 mg-Placebo: 3.4
  SVO angle change from baseline, LS mean difference Psilocybin 25mg-10mg: −1.3
  SVO angle change from baseline, LS mean difference Psilocybin 25 mg-Placebo: 2.1
  SVO type change from baseline, LS mean difference Psilocybin 10 mg-Placebo: 0.1
  SVO type change from baseline, LS mean difference Psilocybin 25mg-10mg: −0.0
  SVO type change from baseline, LS mean difference Psilocybin 25 mg-Placebo: 0.1
  TEQ change from baseline, LS mean difference Psilocybin 10 mg-Placebo: 0.1
  TEQ change from baseline, LS mean difference Psilocybin 25mg-10mg: 0.1
  TEQ change from baseline, LS mean difference Psilocybin 25 mg-Placebo: 0.2
Healthy subjects [2]; Day 84
  PET change from baseline, LS mean difference Psilocybin 10 mg-Placebo: −0.1
  PET change from baseline, LS mean difference Psilocybin 25mg-10mg: 0.3
  PET change from baseline, LS mean difference Psilocybin 25 mg-Placebo: 0.1
  RMET change from baseline, LS mean difference Psilocybin 10 mg-Placebo: 0.2
  RMET change from baseline, LS mean difference Psilocybin 25mg-10mg: 0.3
  RMET change from baseline, LS mean difference Psilocybin 25 mg-Placebo: 0.5
  SSR compliance social rules change from baseline, LS mean difference Psilocybin 10 mg-Placebo: −0.0
  SSR compliance social rules change from baseline, LS mean difference Psilocybin 25mg-10mg: 0.1
  SSR compliance social rules change from baseline, LS mean difference Psilocybin 25 mg-Placebo: 0.1
  SSR fulfilling expectations change from baseline, LS mean difference Psilocybin 10 mg-Placebo: −0.1
  SSR fulfilling expectations change from baseline, LS mean difference Psilocybin 25mg-10mg: 0.2
  SSR fulfilling expectations change from baseline, LS mean difference Psilocybin 25 mg-Placebo: 0.0
  SSR global change from baseline, LS mean difference Psilocybin 10 mg-Placebo: 0.3
  SSR global change from baseline, LS mean difference Psilocybin 25mg-10mg: 1.8
  SSR global change from baseline, LS mean difference Psilocybin 25 mg-Placebo: 2.2
  SVO angle change from baseline, LS mean difference Psilocybin 10 mg-Placebo: 3.4
  SVO angle change from baseline, LS mean difference Psilocybin 25mg-10mg: −1.0
  SVO angle change from baseline, LS mean difference Psilocybin 25 mg-Placebo: 2.4
  SVO type change from baseline, LS mean difference Psilocybin 10 mg-Placebo: 0.1
  SVO type change from baseline, LS mean difference Psilocybin 25mg-10mg: −0.0
  SVO type change from baseline, LS mean difference Psilocybin 25 mg-Placebo: 0.1
  TEQ change from baseline, LS mean difference Psilocybin 10 mg-Placebo: 0.1
  TEQ change from baseline, LS mean difference Psilocybin 25mg-10mg: 0.0
  TEQ change from baseline, LS mean difference Psilocybin 25 mg-Placebo: 0.1
Healthy subjects [2]; Psilocybin 10 mg, Day 7
  SSR fulfilling expectations change from baseline, LS mean: −0.1
Healthy subjects [2]; Psilocybin 10 mg, Day 84
  SSR fulfilling expectations change from baseline, LS mean: −0.2
  TEQ change from baseline, LS mean: −0.1
Healthy subjects [2]; Psilocybin 25 mg, Day 7
  SSR fulfilling expectations change from baseline, LS mean: −0.0
Healthy subjects [2]; Psilocybin 25 mg, Day 84
  SSR fulfilling expectations change from baseline, LS mean: −0.0
  TEQ change from baseline, LS mean: −0.0

— US12377112B2, “Methods of treating neurocognitive disorders, chronic pain and reducing inflammation” (priority 2019, dated 2025)
